The target of experiment [1] is VEGFR2 (KDR) (Homo sapiens (Human), UniProt P35968). The experiment is described as follows: VEGFR2 (KDR) enzyme assay, fluorescence polarization. It counts as biochemical. The note with it: 5 μM ATP, poly(Glu, Tyr) substrate. On the procedure: VEGFR2 (KDR, Proquinase) enzyme assay (auto-phosphorylation assay) was carried out by using Tyrosine Kinase Assay Kit Green (Panvera). The entire assay was conducted in accordance with VEGFR PTK inhibitor cellular activity test S.O.P.
VEGFR2 (KDR), sequence (P35968 20-1356): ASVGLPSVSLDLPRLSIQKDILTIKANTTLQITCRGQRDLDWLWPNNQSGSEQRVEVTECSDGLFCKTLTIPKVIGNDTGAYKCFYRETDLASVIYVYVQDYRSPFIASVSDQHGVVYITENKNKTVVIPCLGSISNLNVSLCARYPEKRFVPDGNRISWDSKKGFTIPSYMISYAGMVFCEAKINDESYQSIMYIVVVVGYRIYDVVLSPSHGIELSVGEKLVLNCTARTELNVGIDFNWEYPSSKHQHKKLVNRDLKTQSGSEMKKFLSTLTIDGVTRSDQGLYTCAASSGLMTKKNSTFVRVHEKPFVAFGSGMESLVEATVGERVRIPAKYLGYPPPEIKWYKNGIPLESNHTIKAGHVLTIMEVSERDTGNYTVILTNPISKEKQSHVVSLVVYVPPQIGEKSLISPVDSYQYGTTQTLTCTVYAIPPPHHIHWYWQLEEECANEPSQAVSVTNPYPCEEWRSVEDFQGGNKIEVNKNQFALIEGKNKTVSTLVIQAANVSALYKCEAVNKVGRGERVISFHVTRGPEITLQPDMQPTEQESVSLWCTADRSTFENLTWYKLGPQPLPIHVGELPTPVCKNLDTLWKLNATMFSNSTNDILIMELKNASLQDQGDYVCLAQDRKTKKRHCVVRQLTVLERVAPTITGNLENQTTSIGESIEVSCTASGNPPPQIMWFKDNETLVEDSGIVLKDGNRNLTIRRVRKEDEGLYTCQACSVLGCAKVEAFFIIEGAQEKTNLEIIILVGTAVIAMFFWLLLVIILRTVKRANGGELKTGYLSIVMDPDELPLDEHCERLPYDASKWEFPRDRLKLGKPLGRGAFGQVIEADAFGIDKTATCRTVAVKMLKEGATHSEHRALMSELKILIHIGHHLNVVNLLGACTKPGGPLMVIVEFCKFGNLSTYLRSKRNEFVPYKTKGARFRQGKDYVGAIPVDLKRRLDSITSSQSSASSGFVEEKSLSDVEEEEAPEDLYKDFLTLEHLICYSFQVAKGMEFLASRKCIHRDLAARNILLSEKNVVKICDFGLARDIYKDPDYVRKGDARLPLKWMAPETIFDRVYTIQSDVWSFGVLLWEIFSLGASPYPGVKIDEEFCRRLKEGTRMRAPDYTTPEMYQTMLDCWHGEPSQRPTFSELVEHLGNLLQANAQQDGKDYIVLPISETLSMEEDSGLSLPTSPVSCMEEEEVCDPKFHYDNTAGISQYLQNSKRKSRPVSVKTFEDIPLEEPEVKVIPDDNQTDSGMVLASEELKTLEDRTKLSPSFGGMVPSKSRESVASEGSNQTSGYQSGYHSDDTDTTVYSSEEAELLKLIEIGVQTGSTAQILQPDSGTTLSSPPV
A typical kinase inhibition reaction requires a protein tyrosine kinase, a suitable buffer solution system, a peptide substrate and ATP. In the present VEGFR tyrosine kinase assay, a buffer solution system containing 20 mM HEPES (pH 7.4), 5 mM MgCl2 and 2 mM MnCl2; 50 μM Na3VO4; 200 ng/10 μl VEGFR (Proquinase); 5 μM ATP; and 10 ng/ml poly(Glu, Tyr) (4:1, Sigma) as a substrate were used.
The compounds of Test Example 1 were used as control compounds at a concentration of 0.0001 to 10 μM. After 10 min, 10 μl of poly(Glu, Tyr) as a substrate was added to each well, and 10 μl of ATP was added thereto to initiate kinase reaction. The plate was incubated at room temperature for 1 hour, and 10 μl of 100 mM EDTA was added to each well to terminate the kinase reaction.
The added EDTA was mixed for 5 min. Thereafter, 10 μl of 10× anti-phosphotyrosine antibody (Panvera), 10 μl of 10×PTK Green Tracer (Panvera) and 30 μl of FP dilution buffer (Panvera) were added thereto, and the plate was incubated in a dark room at room temperature for 30 min.
(In general: In fluorescence polarisation assays a small probe gives low polarisation when free and higher when bound to something large.)

Experiment [2] has as its system colon and rectal cancer cell line, SW-620. In words: Inhibitory effect on growth of cancer cell line SW-620, SRB. The note with it: not having overexpressed EGFR and EGFR2. Format: cell-based. An excerpt: (§1) A skin cancer cell line, A431 (ATCC: CRL-1555), a breast cancer cell line, SK-Br3 (ATCC: HTB-30), and a colon and rectal cancer cell line, SW-620 (ATCC: CCL-227) were used to test the degrees of cancer cell growth inhibition using a culture medium, DEME (Dulbecco's Modified Eagle's Medium, JBI) including 4.5 g/l of glucose and 1.5 g/l of sodium bicarbonate and supplemented with 10% FBS (fetal bovine serum, JBI).
(§2) The cancer cell lines stored in a liquid nitrogen tank were each quickly thawed at 37° C., and centrifuged to remove the medium. The resulting cell pellet was mixed with a culture medium, incubated in a culture flask at 37° C. under 5% CO2 for 2 to 3 days, and the medium was removed. The remaining cells were washed with DPBS (Dulbecco's Phosphate Buffered Saline, JBI) and separated from the flask by using Trypsin-EDTA solution, and the separated cells were diluted with a culture medium to a concentration of 1.0×10^6 cells/ml in case of A431 and SW-620, and 2.0×10^6 cells/ml in case of SK-Br3. 100 μl of the diluted cell solution was added to each well of a 96-well plate, which was incubated at 37° C. under 5% CO2 for 1 day.
(§3) In case that the test compound was not soluble in DMSO, a small amount of 1% HCl was added thereto and treated in a 40° C. water bath for 30 mins until complete dissolution was attained. The test compound solution was diluted with a culture medium to a final concentration of 10 μM, and then diluted 10 times serially to 10^−4. The final concentration of DMSO was less than 1%, and the control compounds of Test Example 1 were used at a concentration of 0.0001 to 10 μM.
(§4) The medium was removed from each well of the 96-well microplate, 100 μl of a diluted test compound solution was added to each well holding cultured cells, and the microplate was incubated at 37° C. under 5% CO2 for 72 hours. After removing the medium from the plate, 50 μl of 10% trichloroacetic acid was added to each well, and the plate was kept at 37° C. for 1 hour to fix the cells to the bottom of the plate. 10% trichloroacetic acid was removed from each well, the plate was dried, 100 μl of an SRB (Sulforhodamine-B, Sigma) dye solution was added thereto, and reacted for 10 mins. The SRB dye solution was prepared by dissolving SRB in 1% acetic acid to a concentration of 0.4%. After removing the dye solution, the plate was washed with water, and dried. When the dye solution was not removed by water, 1% acetic acid was used.
(§5) 150 μl of 10 mM trisma base (Sigma) was added to each well, and the absorbance at 570 nm was determined with a microplate reader (Molecular device).

For experiment [3], the target named is EGFR1 (HER-1) (Homo sapiens (Human), UniProt P00533). The experiment is described as follows: EGFR1 (HER-1) enzyme assay, fluorescence polarization. Format: biochemical. The note with it: 100 μM ATP, poly(Glu, Tyr) substrate.
EGFR1 (HER-1), sequence (P00533 25-1210): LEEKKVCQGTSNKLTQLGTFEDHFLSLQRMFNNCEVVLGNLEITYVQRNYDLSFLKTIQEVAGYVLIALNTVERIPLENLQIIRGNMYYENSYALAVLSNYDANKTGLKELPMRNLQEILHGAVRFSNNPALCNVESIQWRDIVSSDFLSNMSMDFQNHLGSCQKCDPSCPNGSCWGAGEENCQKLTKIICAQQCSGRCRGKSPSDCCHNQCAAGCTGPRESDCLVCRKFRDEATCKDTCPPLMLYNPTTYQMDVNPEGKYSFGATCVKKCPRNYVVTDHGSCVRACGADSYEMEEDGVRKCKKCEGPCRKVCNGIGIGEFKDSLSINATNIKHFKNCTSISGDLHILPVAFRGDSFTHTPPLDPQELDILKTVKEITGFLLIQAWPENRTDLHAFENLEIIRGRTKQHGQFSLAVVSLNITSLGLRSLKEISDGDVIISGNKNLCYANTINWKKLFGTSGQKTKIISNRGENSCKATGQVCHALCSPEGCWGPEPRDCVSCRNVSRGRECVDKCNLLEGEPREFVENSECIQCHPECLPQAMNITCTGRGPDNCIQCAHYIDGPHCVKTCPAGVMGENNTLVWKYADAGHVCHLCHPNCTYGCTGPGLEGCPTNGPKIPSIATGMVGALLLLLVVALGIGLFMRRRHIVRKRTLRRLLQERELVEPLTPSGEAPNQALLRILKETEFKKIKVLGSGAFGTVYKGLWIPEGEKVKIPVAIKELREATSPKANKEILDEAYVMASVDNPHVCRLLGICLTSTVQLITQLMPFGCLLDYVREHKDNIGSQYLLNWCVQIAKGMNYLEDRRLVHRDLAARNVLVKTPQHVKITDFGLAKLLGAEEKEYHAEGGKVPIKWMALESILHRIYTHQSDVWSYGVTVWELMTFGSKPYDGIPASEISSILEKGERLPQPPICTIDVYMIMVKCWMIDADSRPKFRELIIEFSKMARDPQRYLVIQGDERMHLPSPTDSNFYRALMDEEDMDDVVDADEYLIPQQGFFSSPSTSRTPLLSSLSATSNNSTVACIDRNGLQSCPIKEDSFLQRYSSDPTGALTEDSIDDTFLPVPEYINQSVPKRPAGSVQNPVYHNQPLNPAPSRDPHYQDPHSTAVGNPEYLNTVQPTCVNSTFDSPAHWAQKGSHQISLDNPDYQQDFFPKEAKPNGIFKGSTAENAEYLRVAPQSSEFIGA
For experiment [4], the system named is breast cancer cell line, SK-Br3. The experiment is described as follows: Inhibitory effect on growth of cancer cell line SK-Br3, SRB. Format: cell-based. The note with it: overexpressed EGFR2 (HER-2).
Excerpt: as §1, §2, §3, §4, §5

For experiment [5], the system named is skin cancer cell line, A431. In words: Inhibitory effect on growth of cancer cell line A431, SRB. Format: cell-based. The settings on record: overexpressed EGFR1 (HER-1).
Excerpt: as §1, §2, §3, §4, §5

The test system of experiment [6] is Human Umbilical Vein Endothelial Cell (HUVEC). The experiment is described as follows: Inhibitory effect on growth of human umbilical vein endothelial cell (HUVEC), MTS. It counts as cell-based. The note with it: 10 ng/ml VEGF, absorbance 490 nm. On the procedure:
HUVECs (Young Science, Inc) were suspended in a culture medium, EBM-2 (Endothelial Basic Media, Cambrex) supplemented with 2% bovine serum (Cambrex) and auxiliary additives for HUVEC culture (e.g., EGF, VEGF, FGF, etc., Cambrex), inoculated into a culture flask coated with 1% gelatin, and incubated in an incubator at 37° C. under 5% CO2 and 100% humidity.
100 μl of 5% bovine serum medium containing 10 ng/ml of vascular endothelial growth factor (VEGF) and auxiliary additives, while excluding other growth factors was added to each well of a 96-well plate. […] DMSO (Dimethylsulfoxide) was used to dissolve the test compounds, and the final concentration of DMSO was less than 1%.
100 μl of the diluted cell solution was added to each well of the 96-well plate, which was incubated in an incubator for 96 hours.
Then, 20 μl of MTS ([…], Promega) solution was added to each well of the plate, and the plate was incubated in an incubator for 4 hours to induce discoloration. After 4 hours, the pellets were dissolved by way of a thorough shaking, and the absorbance at 490 nm was determined.

Usually IC50 stands for the point on the concentration scale where inhibition reaches its midpoint. The low end stands for greater potency, the high end for weaker potency.

For the compound `C=CC(=O)Nc1cc2c(Nc3ccc(Br)cc3F)ncnc2cc1OCCNC(=O)C(=O)O` [Example 72, {2-[6-acryloylamino-4-(4-bromo-2-fluoro-phenylamino)-quinazolin-7-yloxy]-ethyl}-oxalamic acid], the IC50 was 84 nM in experiment [1]; 10000 nM in experiment [2] (Homo sapiens, 72 h); 102 nM in experiment [3]; 5410 nM in experiment [4] (Homo sapiens, SK-BR-3, 72 h); 125 nM in experiment [5] (Homo sapiens, A-431, 72 h); 106 nM in experiment [6] (Homo sapiens, 96 h).
`C=CC(=O)Nc1cc2c(Nc3ccc(Br)c(F)c3)ncnc2cc1OCCNC(=O)CN(C)C` [Example 79, N-4-(4-bromo-3-fluoro-phenylamino)-7-[2-(2-dimethylamino-acetylamino)-ethoxy]-quinazolin-6-yl-acrylamide]: the half-maximal inhibitory concentration (IC50) in experiment [1] amounted to 1430 nM; in experiment [2] (72 hours), 10000 nM; in experiment [3], 78 nM; in experiment [4] (72 hours) it was 313 nM; in experiment [5] (72 hours) it was 84 nM; in experiment [6] (96 hours), 723 nM.
`C=CC(=O)Nc1cc2c(Nc3ccc(Br)cc3F)ncnc2cc1OCCNC(=O)CN1CCN(C)CC1` [Example 102, N-(4-(4-bromo-2-fluoro-phenylamino)-7-{2-[2-(4-methyl-piperazin-1-yl)-acetylamino]-ethoxy}-quinazolin-6-yl)-acrylamide]: the IC50 amounted to 654 nM in experiment [1]; 727 nM in experiment [2] (Homo sapiens, 72 h); 12 nM in experiment [3]; 112 nM in experiment [4] (Homo sapiens, SK-BR-3, 72 h); 15 nM in experiment [5] (Homo sapiens, A-431, 72 h); 682 nM in experiment [6] (Homo sapiens, 96 h).
For `C=CC(=O)Nc1cc2c(Nc3ccc(Br)cc3F)ncnc2cc1OCCNC(=O)c1cccs1` [Example 92, thiophene-2-carboxylic acid {2-[6-acryloylamino-4-(4-bromo-2-fluoro-phenylamino)-quinazolin-7-yloxy]-ethyl}-amide], the IC50 amounted to 129 nM in experiment [1]; 729 nM in experiment [2] (Homo sapiens, 72 h); 47 nM in experiment [3]; 437 nM in experiment [4] (Homo sapiens, SK-BR-3, 72 h); 57 nM in experiment [5] (Homo sapiens, A-431, 72 h); 258 nM in experiment [6] (Homo sapiens, 96 h).
For `C=CC(=O)Nc1cc2c(Nc3ccc(Br)cc3F)ncnc2cc1OCCNC(=O)CCN1CCCCC1` [Example 104, N-{4-(4-bromo-2-fluoro-phenylamino)-7-[2-(3-piperidin-1-yl-propionylamino)-ethoxy]-quinazolin-6-yl}-acrylamide], the half-maximal inhibitory concentration (IC50) is 945 nM in experiment [1]; 5260 nM in experiment [2] (Homo sapiens, 72 h); 14 nM in experiment [3]; 93 nM in experiment [4] (Homo sapiens, SK-BR-3, 72 h); 16 nM in experiment [5] (Homo sapiens, A-431, 72 h); 855 nM in experiment [6] (Homo sapiens, 96 h).
Consider `C=CC(=O)Nc1cc2c(Nc3ccc(Br)cc3F)ncnc2cc1OCCNC(=O)CCN` [Example 62, N-[7-[2-(3-amino-propionylamino)-ethoxy]-4-(4-bromo-2-fluoro-phenylamino)-quinazolin-6-yl]-acrylamide], for which the IC50 in experiment [1] was 749 nM; in experiment [2] (Homo sapiens, 72 h) it was 724 nM; in experiment [4] (Homo sapiens, SK-BR-3, 72 h), 369 nM; in experiment [6] (Homo sapiens, 96 h), 697 nM.
On to `C=CC(=O)Nc1cc2c(Nc3ccc(Br)cc3F)ncnc2cc1OCCNC(=O)C(CO)N(C)C` (stereo not drawn) [Example 162, N-{4-(4-bromo-2-fluoro-phenylamino)-7-[2-(2-dimethylamino-3-hydroxy-propionylamino)-ethoxy]-quinazolin-6-yl}-acrylamide], for which the IC50 in experiment [1] stood at 797 nM; in experiment [2] (Homo sapiens, 72 h), 10000 nM; in experiment [4] (Homo sapiens, SK-BR-3, 72 h) it was 141 nM; in experiment [5] (Homo sapiens, A-431, 72 h), 154 nM; in experiment [6] (Homo sapiens, 96 h), 882 nM.
With `C=CC(=O)Nc1cc2c(Nc3ccc(Br)cc3F)ncnc2cc1OCCNS(C)(=O)=O` [Example 33, N-[4-(4-bromo-2-fluoro-phenylamino)-7-(2-methanesulfonylamino-ethoxy)-quinazolin-6-yl]-acrylamide], the IC50 in experiment [1] came to 369 nM; in experiment [2] (Homo sapiens, 72 h), 10000 nM; in experiment [4] (Homo sapiens, SK-BR-3, 72 h), 167 nM; in experiment [5] (Homo sapiens, A-431, 72 h) it was 34 nM; in experiment [6] (Homo sapiens, 96 h), 390 nM.
Take `C=CC(=O)Nc1cc2c(Nc3ccc(Br)cc3F)ncnc2cc1OCCNC(=O)c1ccc[nH]1` [Example 99, 1H-pyrrole-2-carboxylic acid {2-[6-acryloylamino-4-(4-bromo-2-fluoro-phenylamino)-quinazolin-7-yloxy]-ethyl}-amide]: the half-inhibitory concentration (IC50) in experiment [1] is 997 nM; in experiment [2] (Homo sapiens, 72 h), 10000 nM; in experiment [4] (Homo sapiens, SK-BR-3, 72 h), 3310 nM; in experiment [5] (Homo sapiens, A-431, 72 h), 408 nM; in experiment [6] (Homo sapiens, 96 h), 989 nM.
The corresponding values for `C=CC(=O)Nc1cc2c(Nc3c(F)cc(Br)cc3F)ncnc2cc1OCCNC(C)=O` [Example 120, N-[7-(2-acetylamino-ethoxy)-4-(4-bromo-2,6-difluoro-phenylamino)-quinazolin-6-yl]-acrylamide] are 127 nM, 10000 nM, 186 nM, 26 nM and 269 nM.
Turning to “N-{2-[6-acryloylamino-4-(4-bromo-2-fluoro-phenylamino)-quinazolin-7-yloxy]-ethyl}-malonic acid ethylester [Example 69]”, the 50% inhibitory concentration (IC50) in experiment [1] came out at 985 nM; in experiment [2] (72 hours) it was 10000 nM; in experiment [4] (72 hours) it was 654 nM; in experiment [5] (72 hours), 238 nM; in experiment [6] (96 hours) it was 954 nM.
Regarding `C=CC(=O)Nc1cc2c(Nc3cc(C(=O)NOC)c(Br)cc3F)ncnc2cc1OCCNC(C)=O` [Example 131, 5-[7-(2-acetylamino-ethoxy)-6-acryloylamino-quinazolin-4-ylamino]-2-bromo-4-fluoro-N-methoxy-benzamide], the IC50 worked out at 756 nM in experiment [1] and 965 nM in experiment [6] (Homo sapiens, 96 h).
For `C=CC(=O)Nc1cc2c(Nc3ccc(Cl)cc3F)ncnc2cc1OCCNC(C)=O` [Example 112, N-[7-(2-acetylamino-ethoxy)-4-(4-chloro-2-fluoro-phenylamino)-quinazolin-6-yl]-acrylamide], the IC50 is 114 nM in experiment [1]; 9560 nM in experiment [2] (Homo sapiens, 72 h); 100 nM in experiment [4] (Homo sapiens, SK-BR-3, 72 h); 19 nM in experiment [5] (Homo sapiens, A-431, 72 h); 189 nM in experiment [6] (Homo sapiens, 96 h).

(Values after patent US8846699B2, “Quinazoline derivatives as a multiplex inhibitor and method for the preparation thereof” (Hanmi Pharm. Co., Ltd., priority 2005, dated 2014).)
